Reference: patent US20060252807A1, “Novel ortho-terphenyl inhibitors of p38 kinase and methods of treating inflammatory disorders” (Kalypsys, Inc., priority 2005, published 2006)

Target: T1, active p38 alpha enzyme (Upstate Biotechnology) (Homo sapiens, UniProt Q16539)
T1 construct: purchased Upstate Biotechnology
Assay: p38α biochemical assay (ATP turnover, luminescent detection, Cambrex PKlight)
Conditions: p38α biochemical assay, Table 1 Biological Activity
How it was run: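 Compounds in DMSO are added to active p38 alpha with MapkapK2 whole protein and ATP at 1.4 uM final. Reactions then run for 2 hours at 30C. A luminescent reagent is added last to quantify total ATP consumed.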

T1 sequence (Q16539 whole entry): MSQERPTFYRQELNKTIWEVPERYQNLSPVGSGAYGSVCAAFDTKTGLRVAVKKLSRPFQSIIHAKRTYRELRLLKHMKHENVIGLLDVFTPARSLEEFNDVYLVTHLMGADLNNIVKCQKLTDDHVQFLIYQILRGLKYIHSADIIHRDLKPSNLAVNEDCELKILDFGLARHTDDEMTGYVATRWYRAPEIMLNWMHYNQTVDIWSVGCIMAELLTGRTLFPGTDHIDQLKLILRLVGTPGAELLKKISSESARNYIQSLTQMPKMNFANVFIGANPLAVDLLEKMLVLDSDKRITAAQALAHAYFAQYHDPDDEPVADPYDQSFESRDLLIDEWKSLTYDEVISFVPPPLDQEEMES

| SMILES | IC50 [µM] |
| --- | --- |
| COc1cc(OC)c(C(=O)NCc2nc(-c3ccc(F)cc3)c(-c3nc(C(=O)NC(C)C)cs3)o2)cc1OC [Example 284] | > 1 |
| COc1cc(C(=O)NCc2nc(-c3ccc(F)cc3)c(-c3nc(C(=O)NC(C)C)cs3)o2)cc(OC)c1OC [Example 285] | > 1 |
| COc1ccc(C(=O)NCc2nc(-c3ccc(F)cc3)c(-c3nc(C(=O)NC(C)C)cs3)o2)c(OC)c1OC [Example 286] | > 1 |
| CC(C)NC(=O)c1csc(-c2oc(CNC(=O)c3ccccc3Cc3ccccc3)nc2-c2ccc(F)cc2)n1 [Example 287] | > 1 |
| CC(C)NC(=O)c1csc(-c2oc(CNC(=O)c3cccc(Oc4ccccc4)c3)nc2-c2ccc(F)cc2)n1 [Example 288] | > 1 |
| CC(C)NC(=O)c1csc(-c2oc(CNC(=O)c3ccccc3Oc3ccccc3)nc2-c2ccc(F)cc2)n1 [Example 289] | > 1 |
| CC(C)NC(=O)c1csc(-c2oc(CNC(=O)c3ccc(Oc4ccccc4)cc3)nc2-c2ccc(F)cc2)n1 [Example 290] | > 1 |
| Cc1cc(C(=O)NCc2nc(-c3ccc(F)cc3)c(-c3nc(C(=O)NC(C)C)cs3)o2)ccc1Br [Example 292] | > 1 |
| Cc1ccc(C(=O)NCc2nc(-c3ccc(F)cc3)c(-c3nc(C(=O)NC(C)C)cs3)o2)cc1Br [Example 293] | > 1 |
| CC(C)NC(=O)c1csc(-c2oc(CNC(=O)Cc3ccc(Br)cc3)nc2-c2ccc(F)cc2)n1 [Example 294] | > 1 |
| CC(C)NC(=O)c1csc(-c2oc(CNC(=O)C3CCCN3C(=O)OC(C)(C)C)nc2-c2ccc(F)cc2)n1 (stereo not drawn) [Example 295] | > 1 |
| CC(C)NC(=O)c1csc(-c2oc(CNC(=O)/C=C/c3ccccc3C(F)(F)F)nc2-c2ccc(F)cc2)n1 [Example 296] | > 1 |
| CCOc1ccc2ccccc2c1C(=O)NCc1nc(-c2ccc(F)cc2)c(-c2nc(C(=O)NC(C)C)cs2)o1 [Example 297] | > 1 |
| CC(C)NC(=O)c1csc(-c2oc(CNC(=O)C(NC(=O)OC(C)(C)C)C(C)C)nc2-c2ccc(F)cc2)n1 (stereo not drawn) [Example 298] | > 1 |
| CC(C)NC(=O)c1csc(-c2oc(CNC(=O)C(NC(=O)OC(C)(C)C)C(C)C)nc2-c2ccc(F)cc2)n1 (stereo not drawn) [Example 299] | > 1 |
| CC(C)NC(=O)c1csc(-c2oc(CNC(=O)CCc3ccccc3Br)nc2-c2ccc(F)cc2)n1 [Example 309] | > 1 |
| CC(C)NC(=O)c1csc(-c2oc(CNC(=O)CCc3cccc(Br)c3)nc2-c2ccc(F)cc2)n1 [Example 310] | > 1 |
| CC(C)NC(=O)c1csc(-c2oc(CNC(=O)C3CCCCN3C(=O)OC(C)(C)C)nc2-c2ccc(F)cc2)n1 (stereo not drawn) [Example 311] | > 1 |
| CC(C)NC(=O)c1csc(-c2oc(CNC(=O)C3CC(O)CN3C(=O)OC(C)(C)C)nc2-c2ccc(F)cc2)n1 (stereo not drawn) [Example 317] | > 1 |
| CC(C)NC(=O)c1csc(-c2oc(CNC(=O)C(C(C)C)N(C)C(=O)OC(C)(C)C)nc2-c2ccc(F)cc2)n1 (stereo not drawn) [Example 318] | > 1 |
| CC(C)NC(=O)c1csc(-c2oc(CNC(=O)c3ccc(Cl)c(Br)c3)nc2-c2ccc(F)cc2)n1 [Example 321] | > 1 |

| SMILES | IC50 [µM] |
| --- | --- |
| CC(C)NC(=O)c1csc(-c2oc(CNC(=O)c3ccccc3C(=O)c3ccc(F)cc3)nc2-c2ccc(F)cc2)n1 [Example 323] | > 1 |
| CC(C)NC(=O)c1csc(-c2oc(CNC(=O)C(C)c3ccc(-c4ccccc4)c(F)c3)nc2-c2ccc(F)cc2)n1 (stereo not drawn) [Example 324] | > 1 |
| CC(C)NC(=O)c1csc(-c2oc(CNC(=O)C3CCCN3C(=O)OCc3ccccc3)nc2-c2ccc(F)cc2)n1 (stereo not drawn) [Example 327] | > 1 |
| CCC(C)C(NC(=O)OC(C)(C)C)C(=O)NCc1nc(-c2ccc(F)cc2)c(-c2nc(C(=O)NC(C)C)cs2)o1 (stereo not drawn) [Example 328] | > 1 |
| CC(C)CC(NC(=O)OC(C)(C)C)C(=O)NCc1nc(-c2ccc(F)cc2)c(-c2nc(C(=O)NC(C)C)cs2)o1 (stereo not drawn) [Example 329] | > 1 |
| CC(C)NC(=O)c1csc(-c2oc(CNC(=O)C(C)c3cccc(C(=O)c4ccccc4)c3)nc2-c2ccc(F)cc2)n1 (stereo not drawn) [Example 330] | > 1 |
| CC(C)NC(=O)c1csc(-c2oc(CNC(=O)C(Cc3ccccn3)NC(=O)OC(C)(C)C)nc2-c2ccc(F)cc2)n1 (stereo not drawn) [Example 332] | > 1 |
| CC(C)NC(=O)c1csc(-c2oc(CNC(=O)C3Cc4ccccc4CN3C(=O)OC(C)(C)C)nc2-c2ccc(F)cc2)n1 (stereo not drawn) [Example 333] | > 1 |
| CC(C)NC(=O)c1csc(-c2oc(CN3CCN(C(=O)C=O)CC3)nc2-c2ccc(F)cc2)n1 [Example 336] | ≤ 1 |
| CC(C)NC(=O)c1csc(-c2oc(CN3CCN(C(=O)CC#N)CC3)nc2-c2ccc(F)cc2)n1 [Example 337] | ≤ 1 |
| CC(C)NC(=O)c1csc(-c2oc(CN3CCN(C(=O)C(C)O)CC3)nc2-c2ccc(F)cc2)n1 (stereo not drawn) [Example 338] | > 1 |
| CCC(=O)C(=O)N1CCN(Cc2nc(-c3ccc(F)cc3)c(-c3nc(C(=O)NC(C)C)cs3)o2)CC1 [Example 339] | > 1 |
| CC(C)NC(=O)c1csc(-c2oc(CN3CCN(C(=O)C(C)(C)C)CC3)nc2-c2ccc(F)cc2)n1 [Example 340] | ≤ 1 |
| CC(C)CC(=O)N1CCN(Cc2nc(-c3ccc(F)cc3)c(-c3nc(C(=O)NC(C)C)cs3)o2)CC1 [Example 341] | > 1 |
| CC(C)NC(=O)c1csc(-c2oc(CN3CCN(C(=O)c4cnc[nH]4)CC3)nc2-c2ccc(F)cc2)n1 [Example 342] | ≤ 1 |
| CC(C)NC(=O)c1csc(-c2oc(CN3CCN(C(=O)c4ncc[nH]4)CC3)nc2-c2ccc(F)cc2)n1 [Example 343] | ≤ 1 |
| CC(C)NC(=O)c1csc(-c2oc(CN3CCN(C(=O)C4=CCCC4)CC3)nc2-c2ccc(F)cc2)n1 [Example 344] | > 1 |
| CC(C)NC(=O)c1csc(-c2oc(CN3CCN(C(=O)C(F)(F)F)CC3)nc2-c2ccc(F)cc2)n1 [Example 345] | ≤ 1 |
| CC(C)NC(=O)c1csc(-c2oc(CN3CCN(C(=O)C4CCCO4)CC3)nc2-c2ccc(F)cc2)n1 (stereo not drawn) [Example 346] | > 1 |
| CC(=O)NCC(=O)N1CCN(Cc2nc(-c3ccc(F)cc3)c(-c3nc(C(=O)NC(C)C)cs3)o2)CC1 [Example 347] | > 1 |
| CC(C)NC(=O)c1csc(-c2oc(CN3CCN(C(=O)c4ccccc4)CC3)nc2-c2ccc(F)cc2)n1 [Example 348] | > 1 |

Second part, the compound after the results:

| IC50 [µM] | SMILES |
| --- | --- |
| ≤ 1 | CC(C)NC(=O)c1csc(-c2oc(CNC(=O)c3cc(Cl)c(O)c(Cl)c3)nc2-c2ccc(F)cc2)n1 [Example 281] |
| ≤ 1 | CC(C)NC(=O)c1csc(-c2oc(CNC(=O)c3c(F)c(F)c(F)c(F)c3F)nc2-c2ccc(F)cc2)n1 [Example 282] |
| ≤ 1 | COc1cc(OC)c(C(=O)NCc2nc(-c3ccc(F)cc3)c(-c3nc(C(=O)NC(C)C)cs3)o2)c(OC)c1 [Example 283] |
| ≤ 1 | CC(C)NC(=O)c1csc(-c2oc(CNC(=O)c3ccc(-c4ccc(O)cc4)cc3)nc2-c2ccc(F)cc2)n1 [Example 291] |
| ≤ 1 | CC(C)NC(=O)c1csc(-c2oc(CNC(=O)CCc3cccc(C(F)(F)F)c3)nc2-c2ccc(F)cc2)n1 [Example 300] |
| ≤ 1 | CC1=NN(c2ccc(C(=O)NCc3nc(-c4ccc(F)cc4)c(-c4nc(C(=O)NC(C)C)cs4)o3)cc2)C(=O)C1 [Example 301] |
| ≤ 1 | Cc1nc(Br)sc1C(=O)NCc1nc(-c2ccc(F)cc2)c(-c2nc(C(=O)NC(C)C)cs2)o1 [Example 302] |
| ≤ 1 | CC(C)NC(=O)c1csc(-c2oc(CNC(=O)c3c4ccccc4cc4ccccc34)nc2-c2ccc(F)cc2)n1 [Example 303] |
| ≤ 1 | CC(C)NC(=O)c1csc(-c2oc(CNC(=O)c3cc(C(C)C)cc(C(C)C)c3O)nc2-c2ccc(F)cc2)n1 [Example 304] |
| ≤ 1 | CC(=O)NC(Cc1ccc(O)cc1)C(=O)NCc1nc(-c2ccc(F)cc2)c(-c2nc(C(=O)NC(C)C)cs2)o1 (stereo not drawn) [Example 305] |
| ≤ 1 | CC(C)NC(=O)c1csc(-c2oc(CNC(=O)c3c(Cl)cc(Cl)cc3Cl)nc2-c2ccc(F)cc2)n1 [Example 306] |
| ≤ 1 | COc1cc(C(=O)NCc2nc(-c3ccc(F)cc3)c(-c3nc(C(=O)NC(C)C)cs3)o2)c([N+](=O)[O-])cc1OC [Example 307] |
| ≤ 1 | CC(C)NC(=O)c1csc(-c2oc(CNC(=O)c3ccc(OCc4ccccc4)cc3)nc2-c2ccc(F)cc2)n1 [Example 308] |
| ≤ 1 | CC(C)NC(=O)c1csc(-c2oc(CNC(=O)c3ccc(Oc4cccc(O)c4)cc3)nc2-c2ccc(F)cc2)n1 [Example 312] |
| ≤ 1 | COc1ccc2cc(C(C)C(=O)NCc3nc(-c4ccc(F)cc4)c(-c4nc(C(=O)NC(C)C)cs4)o3)ccc2c1 (stereo not drawn) [Example 313] |
| ≤ 1 | CC(C)NC(=O)c1csc(-c2oc(CNC(=O)C3CN(C(=O)OC(C)(C)C)CCN3)nc2-c2ccc(F)cc2)n1 (stereo not drawn) [Example 314] |
| ≤ 1 | CC(C)NC(=O)c1csc(-c2oc(CNC(=O)C3CN(C(=O)OC(C)(C)C)CCN3)nc2-c2ccc(F)cc2)n1 (stereo not drawn) [Example 315] |
| ≤ 1 | COc1ccc(Br)c(C(=O)NCc2nc(-c3ccc(F)cc3)c(-c3nc(C(=O)NC(C)C)cs3)o2)c1 [Example 316] |
| ≤ 1 | CC(C)NC(=O)c1csc(-c2oc(CNC(=O)c3ccc(C(F)(F)F)cc3[N+](=O)[O-])nc2-c2ccc(F)cc2)n1 [Example 319] |
| ≤ 1 | CC(C)NC(=O)c1csc(-c2oc(CNC(=O)c3cc(Br)ccc3Cl)nc2-c2ccc(F)cc2)n1 [Example 320] |
| ≤ 1 | CC(C)NC(=O)c1csc(-c2oc(CNC(=O)c3ccccc3C(=O)c3ccc(O)cc3)nc2-c2ccc(F)cc2)n1 [Example 322] |
| ≤ 1 | CC(C)NC(=O)c1csc(-c2oc(CNC(=O)C(Cc3ccccc3)NC(=O)OC(C)(C)C)nc2-c2ccc(F)cc2)n1 (stereo not drawn) [Example 331] |
| ≤ 1 | CC(C)NC(=O)c1csc(-c2oc(CNC(=O)C(Cc3ccc(O)cc3)NC(=O)OC(C)(C)C)nc2-c2ccc(F)cc2)n1 (stereo not drawn) [Example 334] |
| ≤ 1 | CC(=O)N1CCN(Cc2nc(-c3ccc(F)cc3)c(-c3nc(C(=O)NC(C)C)cs3)o2)CC1 [Example 335] |
